Assay: recombinant barcode read abundance after kanamycin selection (control-corrected) (log10(CPM+1)); higher = more efficient recombination; sequences stand for … in AGTGCAGAGAAAATCGGCCAGTTTTCTCTGCCTGCAGTCCGCATGCCGT…AGATTTATGCAGCGGACTGCCTTTCTCCCAAAGTGATAAACCGGACAGTATCATGGACCGGTTTTCCCGGTAATCCGTATTTGCAAGGTTGGTTTCACT; site = the 11-nt target
How it was run: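 For this pooled screen, each oligo contained a promoter, a target, a barcode and the J23119-driven first 104 bases of the bridge RNA. Gibson cloning placed it into a vector supplying the remaining 73 bp and a T7-inducible recombinase, and the pool was co-electroporated into E. coli with a donor plasmid. Recombination efficiency is derived from barcode counts per million at recombinant junctions after averaging and control correction, and is expressed on a log scale as log10(CPM+1), with selection on chloramphenicol/ampicillin/kanamycin plus 0.1 mM IPTG against a chloramphenicol/ampicillin LB agar control.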
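Also: IS621 recombinase and bridge RNA in Escherichia coli cells.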

CTATGCCCTTGGGTTCTAACCTGTTGCGA (site CTATGCCCTTC)
recombinant barcode read abundance (log10): 2.02

CTATGGACTTGGGTTCTAACCTGTTGCAG (site CTATGGACTAT)
recombinant barcode read abundance (log10): 0.391

CTATGGACTTGGGTTCTAACCTGTTGCAG (site CTATGGACTCT)
recombinant barcode read abundance (log10): 2.39

CTATGGACTTGGGTTCTAACCTGTTGCAG (site CTATGGACTGT)
recombinant barcode read abundance (log10): 0.348

CTATGGACTTGGGTTCTAACCTGTTGCAG (site CTATGGACTTT)
recombinant barcode read abundance (log10): 0.0535

CTATGTGCTTGGGTTCTAACCTGTTGCCT (site CTATGTGCTAA)
recombinant barcode read abundance (log10): 0.158

CTATGTGCTTGGGTTCTAACCTGTTGCCT (site CTATGTGCTAC)
recombinant barcode read abundance (log10): 0.298

CTATGTGCTTGGGTTCTAACCTGTTGCCT (site CTATGTGCTAG)
recombinant barcode read abundance (log10): 1.62

CTATGTGCTTGGGTTCTAACCTGTTGCCT (site CTATGTGCTAT)
recombinant barcode read abundance (log10): 0.305

CTATGTGCTTGGGTTCTAACCTGTTGCGA (site CTATGTGCTTC)
recombinant barcode read abundance (log10): 1.87

CTATGTGCTTGGGTTCTAACCTGTTGCGA (site GTATGTGCTTT)
recombinant barcode read abundance (log10): 0.139

CTATGTGCTTGGGTTCTAACCTGTTGCGT (site CTATGTGCTAA)
recombinant barcode read abundance (log10): 0.0372

CTATGTGCTTGGGTTCTAACCTGTTGCGT (site CTATGTGCTAC)
recombinant barcode read abundance (log10): 1.54

CTATGTGCTTGGGTTCTAACCTGTTGCGT (site CTATGTGCTAG)
recombinant barcode read abundance (log10): 0.0548

CTATGTGCTTGGGTTCTAACCTGTTGCGT (site CTATGTGCTAT)
recombinant barcode read abundance (log10): 0.298

CTATTCCCTTGGGTTCTAACCTGTTGCCT (site CTATTCACTAG)
recombinant barcode read abundance (log10): 0.1

CTATTCCCTTGGGTTCTAACCTGTTGCCT (site CTATTCCCTAG)
recombinant barcode read abundance (log10): 1.52

CTATTCCCTTGGGTTCTAACCTGTTGCCT (site CTATTCGCTAG)
recombinant barcode read abundance (log10): 0.286

CTATTCCCTTGGGTTCTAACCTGTTGCCT (site CTATTCTCTAG)
recombinant barcode read abundance (log10): 0.483

CTATTGTCTTGGGTTCTAACCTGTTGCGG (site CTATTGTCTAC)
recombinant barcode read abundance (log10): 0.714

CTATTGTCTTGGGTTCTAACCTGTTGCGG (site CTATTGTCTCC)
recombinant barcode read abundance (log10): 1.35

CTATTGTCTTGGGTTCTAACCTGTTGCGG (site CTATTGTCTGC)
recombinant barcode read abundance (log10): 0.249

CTATTGTCTTGGGTTCTAACCTGTTGCGG (site CTATTGTCTTC)
recombinant barcode read abundance (log10): 0.17

CTCAATACTTGGGTTCTAACCTGTTGCGA (site CTCAATACTTC)
recombinant barcode read abundance (log10): 1.15

CTCAATACTTGGGTTCTAACCTGTTGCGA (site CTCAATTCTTT)
recombinant barcode read abundance (log10): 0.0435

CTCAGACCTTGGGTTCTAACCTGTTGCTG (site CTCAGACCTCA)
recombinant barcode read abundance (log10): 0.037

CTCAGACCTTGGGTTCTAACCTGTTGCTG (site TCACACACTAG)
recombinant barcode read abundance (log10): 0.463

CTCATATCTTGGGTTCTAACCTGTTGCCA (site CTAATATCTTG)
recombinant barcode read abundance (log10): 0.0804

CTCATATCTTGGGTTCTAACCTGTTGCCA (site CTCATATCTTG)
recombinant barcode read abundance (log10): 0.162

CTCCAGACTTGGGTTCTAACCTGTTGCAG (site CTCCAGACTCT)
recombinant barcode read abundance (log10): 1.87

CTCCAGACTTGGGTTCTAACCTGTTGCAG (site CTGCAGACTCG)
recombinant barcode read abundance (log10): 0.0775

CTCCAGGCTTGGGTTCTAACCTGTTGCGG (site CTCAAGGCTAC)
recombinant barcode read abundance (log10): 0.427

CTCCAGGCTTGGGTTCTAACCTGTTGCGG (site CTCCAGGCTCC)
recombinant barcode read abundance (log10): 1.55

CTCCGAACTTGGGTTCTAACCTGTTGCTT (site CTCCGAACTAA)
recombinant barcode read abundance (log10): 0.144

CTCCGAACTTGGGTTCTAACCTGTTGCTT (site CTCCGTACTAT)
recombinant barcode read abundance (log10): 0.0428

CTCCGACCTTGGGTTCTAACCTGTTGCTT (site CTCCGACCTAA)
recombinant barcode read abundance (log10): 1.67

CTCCGACCTTGGGTTCTAACCTGTTGCTT (site CTCCGCCCTAA)
recombinant barcode read abundance (log10): 0.0228

CTCCGACCTTGGGTTCTAACCTGTTGCTT (site CTCCGGCCTAA)
recombinant barcode read abundance (log10): 0.327

CTCCGACCTTGGGTTCTAACCTGTTGCTT (site CTCCGTCCTAA)
recombinant barcode read abundance (log10): 0.103

CTCCGAGCTTGGGTTCTAACCTGTTGCTA (site CTCCGAGCTTA)
recombinant barcode read abundance (log10): 0.0161

CTCCGAGCTTGGGTTCTAACCTGTTGCTA (site CTCCTAGCTAA)
recombinant barcode read abundance (log10): 0.00807

CTCGACACTTGGGTTCTAACCTGTTGCTG (site CTCGACACTCA)
recombinant barcode read abundance (log10): 1.6

CTCGACACTTGGGTTCTAACCTGTTGCTG (site CTCTACACTCA)
recombinant barcode read abundance (log10): 0.191

CTCGCTACTTGGGTTCTAACCTGTTGCTT (site CTCGATACTAA)
recombinant barcode read abundance (log10): 0.0927

CTCGCTACTTGGGTTCTAACCTGTTGCTT (site CTCGCTACTAA)
recombinant barcode read abundance (log10): 0.264

CTCGCTCCTTGGGTTCTAACCTGTTGCCA (site CTCGCTCCTTG)
recombinant barcode read abundance (log10): 0.275

CTCGCTCCTTGGGTTCTAACCTGTTGCCA (site GAAAAGTCTCA)
recombinant barcode read abundance (log10): 0.113

CTCGGAACTTGGGTTCTAACCTGTTGCAT (site CTCGGAACTAT)
recombinant barcode read abundance (log10): 1.86

CTCGGAACTTGGGTTCTAACCTGTTGCAT (site CTGGGAACTCT)
recombinant barcode read abundance (log10): 0.00945

CTCGGGCCTTGGGTTCTAACCTGTTGCCT (site ATCGGGCCTAG)
recombinant barcode read abundance (log10): 0.0932

CTCGGGCCTTGGGTTCTAACCTGTTGCCT (site CTCGGGCCTAG)
recombinant barcode read abundance (log10): 0.144

CTCGGGCCTTGGGTTCTAACCTGTTGCCT (site GTCGGGCCTAG)
recombinant barcode read abundance (log10): 0.0296

CTCGGGCCTTGGGTTCTAACCTGTTGCCT (site TTCGGGCCTAG)
recombinant barcode read abundance (log10): 0.0756

CTCGTTACTTGGGTTCTAACCTGTTGCCT (site CTCGTAACTAG)
recombinant barcode read abundance (log10): 0.0393

CTCGTTACTTGGGTTCTAACCTGTTGCCT (site CTCGTCACTAG)
recombinant barcode read abundance (log10): 0.112

CTCGTTACTTGGGTTCTAACCTGTTGCCT (site CTCGTGACTAG)
recombinant barcode read abundance (log10): 0.0469

CTCGTTACTTGGGTTCTAACCTGTTGCCT (site CTCGTTACTAG)
recombinant barcode read abundance (log10): 0.682

CTCGTTGCTTGGGTTCTAACCTGTTGCCT (site ATCGTTGCTAG)
recombinant barcode read abundance (log10): 0.0725

CTCGTTGCTTGGGTTCTAACCTGTTGCCT (site CTCGTTGCTAG)
recombinant barcode read abundance (log10): 0.519

CTCGTTGCTTGGGTTCTAACCTGTTGCCT (site GTCGTTGCTAG)
recombinant barcode read abundance (log10): 0.0989

CTCGTTGCTTGGGTTCTAACCTGTTGCCT (site TTCGTTGCTAG)
recombinant barcode read abundance (log10): 0.0838

CTCTAGTCTTGGGTTCTAACCTGTTGCAT (site CTCTAGTCTAA)
recombinant barcode read abundance (log10): 0.545

CTCTAGTCTTGGGTTCTAACCTGTTGCAT (site CTCTAGTCTAC)
recombinant barcode read abundance (log10): 0.263

CTCTAGTCTTGGGTTCTAACCTGTTGCAT (site CTCTAGTCTAG)
recombinant barcode read abundance (log10): 0.109

CTCTAGTCTTGGGTTCTAACCTGTTGCAT (site CTCTAGTCTAT)
recombinant barcode read abundance (log10): 1.8

CTCTAGTCTTGGGTTCTAACCTGTTGCGT (site CTCTAGTCTAA)
recombinant barcode read abundance (log10): 0.268

CTCTAGTCTTGGGTTCTAACCTGTTGCGT (site CTCTAGTCTAC)
recombinant barcode read abundance (log10): 2.54

CTCTAGTCTTGGGTTCTAACCTGTTGCGT (site CTCTAGTCTAG)
recombinant barcode read abundance (log10): 0.125

CTCTAGTCTTGGGTTCTAACCTGTTGCGT (site CTCTAGTCTAT)
recombinant barcode read abundance (log10): 1.79

CTCTCAGCTTGGGTTCTAACCTGTTGCGA (site CTCTAAACTTC)
recombinant barcode read abundance (log10): 0.15

CTCTCAGCTTGGGTTCTAACCTGTTGCGA (site CTCTCAGCTTC)
recombinant barcode read abundance (log10): 0.549

CTCTCCACTTGGGTTCTAACCTGTTGCCA (site CTCTCCACTTG)
recombinant barcode read abundance (log10): 0.138

CTCTCCACTTGGGTTCTAACCTGTTGCCA (site CTCTCGACTTG)
recombinant barcode read abundance (log10): 0.0411

CTCTCCGCTTGGGTTCTAACCTGTTGCCT (site CTCTCCGCTAG)
recombinant barcode read abundance (log10): 0.77

CTCTCCGCTTGGGTTCTAACCTGTTGCCT (site CTCTCCTCTAG)
recombinant barcode read abundance (log10): 0.0931

CTCTCGACTTGGGTTCTAACCTGTTGCCA (site CTCTCCACTTG)
recombinant barcode read abundance (log10): 0.0478

CTCTCGACTTGGGTTCTAACCTGTTGCCA (site CTCTCGACTTG)
recombinant barcode read abundance (log10): 0.328

CTCTCGTCTTGGGTTCTAACCTGTTGCAT (site CTCTCGTCTAA)
recombinant barcode read abundance (log10): 0.0866

CTCTCGTCTTGGGTTCTAACCTGTTGCAT (site CTCTCGTCTAC)
recombinant barcode read abundance (log10): 0.08

CTCTCGTCTTGGGTTCTAACCTGTTGCAT (site CTCTCGTCTAG)
recombinant barcode read abundance (log10): 0.0361

CTCTCGTCTTGGGTTCTAACCTGTTGCAT (site CTCTCGTCTAT)
recombinant barcode read abundance (log10): 1.45

CTCTCGTCTTGGGTTCTAACCTGTTGCGG (site CTCTCGTCTCC)
recombinant barcode read abundance (log10): 1.16

CTCTCGTCTTGGGTTCTAACCTGTTGCGG (site GGACGTGCTAG)
recombinant barcode read abundance (log10): 0.127

CTCTGGACTTGGGTTCTAACCTGTTGCTT (site CTCTGGACTAA)
recombinant barcode read abundance (log10): 1.13

CTCTGGACTTGGGTTCTAACCTGTTGCTT (site CTCTTGACTAA)
recombinant barcode read abundance (log10): 0.0289

CTCTTCGCTTGGGTTCTAACCTGTTGCCT (site CTCTTCACTCG)
recombinant barcode read abundance (log10): 0.208

Source: the supplement of paper PMC11208160
